Reference: patent EP0513703A2, “Carbamate esters of eseroline having anticholinesterase activity, a process for their preparation and relative pharmaceutical compositions containing them as the active principle” (priority 1991, dated 1992)
Values joined by “and” are separate entries in the source; they are usually repeats but may differ in a detail not shown here. Identical values can stand only once.

Experiments:
[1] = molecular target: T1, acetylicholinesterase enzyme in the mouse brain (Mus musculus, UniProt P21836); test: Inhibition of acetylcholinesterase in the mouse brain after single doses (class B derivatives); type: in vivo; settings: single doses in the range 0.4-7mg/kg
T1 construct: from tissue; host or cells: mouse brain
T1 sequence (P21836 32-614): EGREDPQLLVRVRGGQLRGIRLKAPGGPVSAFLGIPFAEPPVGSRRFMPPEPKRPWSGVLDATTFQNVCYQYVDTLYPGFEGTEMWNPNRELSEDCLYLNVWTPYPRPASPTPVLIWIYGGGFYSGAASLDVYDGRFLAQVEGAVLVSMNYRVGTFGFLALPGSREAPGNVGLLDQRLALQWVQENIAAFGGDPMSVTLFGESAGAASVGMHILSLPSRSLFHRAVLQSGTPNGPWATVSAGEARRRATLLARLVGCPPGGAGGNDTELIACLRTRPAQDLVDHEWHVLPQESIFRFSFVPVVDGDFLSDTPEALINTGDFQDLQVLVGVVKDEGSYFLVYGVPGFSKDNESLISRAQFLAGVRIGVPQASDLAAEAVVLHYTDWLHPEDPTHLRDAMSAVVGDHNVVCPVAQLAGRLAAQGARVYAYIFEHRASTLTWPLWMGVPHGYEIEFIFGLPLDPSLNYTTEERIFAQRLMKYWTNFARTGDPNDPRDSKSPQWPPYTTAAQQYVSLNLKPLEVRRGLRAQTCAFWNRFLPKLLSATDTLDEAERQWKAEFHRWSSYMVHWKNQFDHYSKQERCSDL

[2] = tested on: mice; test: Toxicity, LD50 by intraperitoneal route (class B derivatives); type: in vivo; settings: death within 24 hours of 50% of the tested animals
From the text: In the following table reported are LD50 values determined on mice for the listed compounds and compared with that of physostigmine administered by the same (intraperitoneal) route.

[3] = tested on: anticholinesterase activity, on the mouse brain; test: Inhibition of cholinesterase activity on the mouse brain after single doses (class C derivatives); type: in vivo; settings: for suppression of the enzymatic activity: even at higher doses; for duration of the inhibitory activity compared with physostigmine: mouse brain; for inhibition of the anticholinesterase activity, on the mouse brain (in words): single doses in the range 0.4-7mg/kg
[4] = tested on: motor activity; test: Antagonist effect on the stimulating effect of scopolamine (class C derivatives); type: in vivo; settings: scopolamine 1 mg/kg; oral administration
Protocol: This is countered by the oral administration of 2.5 mg of ES001, ES002, ES003.

[5] = tested on: mouse; test: Toxicity, LD50 by intraperitoneal route (class C derivatives); type: in vivo
From the text: In the following table reported are the LD50 values determined on mouse for the compounds listed and compared with the corresponding LD50 value for physostigmine, administered by the same (intraperitoneal) route.

[6] = tested on: mice (Swiss strain); test: Acute toxicity, LD50 by oral route in mice (class A derivatives); type: in vivo; settings: mouse, suspension in 2 % carboxymethylcellulose, observation 7 days
From the text: The letal doses 50 (LD50) by oral route (suspension in 2 % carboxymethylcellulose) are reported herinbelow: TABLE 1

[7] = tested on: acetylcholinesterase (AchE); type: in vivo, Wistar male rats; settings: rat, oral, 1.5 to 4.5 mg/kg
[8] = tested on: mouse; test: Spontaneous motility, Dews method modified according to Carminati (class A derivatives); type: in vivo; settings: mouse (Swiss), oral, starting from minimum doses of 4-6 mg/kg
From the text: (§1) The Dews method was used, modified according to Carminati (Arch. int. Pharmacodyn. et Thér 181, 68,1969).

[9] = tested on: mice (Swiss strain); test: Acute toxicity, LD50 by oral route in mice (class E derivatives); type: in vivo; settings: mouse, suspension in 2 % carboxymethylcellulose, observation 7 days
From the text: The letal doses 50 (LD50) by oral route (suspension in 2 % carboxymethylcellulose) are reported herinbelow: TABLE 9

[10] = tested on: mouse; test: Spontaneous motility, Dews method modified according to Carminati (class E derivatives); type: in vivo; settings: mouse (Strain Swiss); for decrease of the spontaneous motility (on average): oral, 0.25 mg/kg
From the text: as §1

CN1CC[C@@]2(C)c3cc(OC(=O)NCCC(=O)O)ccc3N(C)[C@@H]12 [Compound M001]
inhibition of acetylicholinesterase enzyme in the mouse brain (in words) [1]: dose -dependence, reversible inhibition
LD50 (mg/kg i.p.) [2]: >20 mg/kg i.p. and <40 mg/kg i.p.

CC(CNC(=O)Oc1ccc2c(c1)[C@]1(C)CCN(C)[C@@H]1N2C)C(=O)O (stereo partly drawn) [Compound M002]
inhibition of acetylicholinesterase enzyme in the mouse brain (in words) [1]: dose -dependence, reversible inhibition
LD50 (mg/kg i.p.) [2]: >40 mg/kg i.p. and <80 mg/kg i.p.

CN1CC[C@@]2(C)c3cc(OC(=O)NCCCCCCCCC(=O)O)ccc3N(C)[C@@H]12 [Compound M003]
inhibition of acetylicholinesterase enzyme in the mouse brain (in words) [1]: dose -dependence, reversible inhibition
LD50 (mg/kg i.p.) [2]: >30 mg/kg i.p. and <60 mg/kg i.p.

CN1CC[C@@]2(C)c3cc(OC(=O)NC(CO)C(=O)O)ccc3N(C)[C@@H]12 (stereo partly drawn) [Compound M006]
inhibition of acetylicholinesterase enzyme in the mouse brain (in words) [1]: dose -dependence, reversible inhibition

CN1CC[C@@]2(C)c3cc(OC(=O)NCC(O)CC(=O)O)ccc3N(C)[C@@H]12 (stereo partly drawn) [Compound M007]
inhibition of acetylicholinesterase enzyme in the mouse brain (in words) [1]: dose -dependence, reversible inhibition
LD50 (mg/kg i.p.) [2]: >30 mg/kg i.p. and <60 mg/kg i.p.

CC(CC(=O)O)NC(=O)Oc1ccc2c(c1)[C@]1(C)CCN(C)[C@@H]1N2C (stereo partly drawn) [Compound M008]
inhibition of acetylicholinesterase enzyme in the mouse brain (in words) [1]: dose -dependence, reversible inhibition
LD50 (mg/kg i.p.) [2]: >20 mg/kg i.p. and <40 mg/kg i.p.

CN1CC[C@@]2(C)c3cc(OC(=O)NCCC(O)CC(=O)O)ccc3N(C)[C@@H]12 (stereo partly drawn) [Compound M009]
inhibition of acetylicholinesterase enzyme in the mouse brain (in words) [1]: dose -dependence, reversible inhibition
LD50 (mg/kg i.p.) [2]: >20 mg/kg i.p. and <40 mg/kg i.p.

CC(O)CNC(=O)Oc1ccc2c(c1)[C@]1(C)CCN(C)[C@@H]1N2C (stereo partly drawn) [ES001, trimethyl-1,3a,8 hexahydro-1,2,3a,8,8a-pyrrol(2,3-b)indol-5(3aS,8aR)2-hydroxypropylcarbamate]
suppression of the enzymatic activity [3]: do not completely suppress the enzymatic activity
duration of the inhibitory activity compared with physostigmine [3]: lasts longer than that of physostigmine
inhibition of the anticholinesterase activity, on the mouse brain (in words) [3]: dose-dependence, reversible inhibition
oral dose countering the stimulating effect of scopolamine [4]: 2.5 mg
LD50 (mg/kg i.p) [5]: >20 mg/kg i.p and <40 mg/kg i.p

CCCCCCCC/C=C\CCCCCCCC(=O)OC(C)CNC(=O)Oc1ccc2c(c1)[C@]1(C)CCN(C)[C@@H]1N2C (stereo partly drawn) [ES002, trimethyl-1,3a,8 hexahydro-1,2,3a,8,8a-pyrrol(2,3-b)indol-5(3aS,8aR)-2-oleoxypropylcarbamate]
suppression of the enzymatic activity [3]: do not completely suppress the enzymatic activity
duration of the inhibitory activity compared with physostigmine [3]: lasts longer than that of physostigmine
inhibition of the anticholinesterase activity, on the mouse brain (in words) [3]: dose-dependence, reversible inhibition
oral dose countering the stimulating effect of scopolamine [4]: 2.5 mg
LD50 (mg/kg i.p) [5]: >40 mg/kg i.p and <80 mg/kg i.p

CN1CC[C@@]2(C)c3cc(OC(=O)NCC(C)(O)c4ccccc4)ccc3N(C)[C@@H]12 (stereo partly drawn) [ES004, trimethyl-1,3a,8, hexahydro-1,2,3a, 8,8a-pyrrol (2,3-b) indol-5 (3aS,8aR)-2-hydroxy-2-phenylpropylcarbamate]
LD50 (mg/kg i.p) [5]: >10 mg/kg i.p and <15 mg/kg i.p

CN1CC[C@@]2(C)c3cc(OC(=O)Nc4ccccc4O)ccc3N(C)[C@@H]12 [ES005, trimethyl-1,3a,8 hexahydro-1,2,3a,8,8a-pyrrol(2,3-b)indol-5(3aS,8aR)-2-hydroxy-phenyl-carbamate]
LD50 (mg/kg i.p) [5]: >15 mg/kg i.p and <30 mg/kg i.p

CCCCCCCCCCCCCCCCCC(=O)OC(CCCCCC)CNC(=O)Oc1ccc2c(c1)[C@]1(C)CCN(C)[C@@H]1N2C (stereo partly drawn) [ES007, trimethyl-1,3a,8 hexahydro-1,2,3a,8,8a-pyrrol(2,3-b)indol-5-(3aS,8aR)-2-stearoyloxyoctanylcarbamate]
LD50 (mg/kg i.p) [5]: >40 mg/kg i.p and <80 mg/kg i.p

CN1CC[C@@]2(C)c3cc(OC(=O)NCC(O)CC4CCCCC4)ccc3N(C)[C@@H]12 (stereo partly drawn) [ES008, trimethyl-1,3a,8, hexahydro-1,2,3a,8,-8a pyrrol(2,3-b)indol-5-(3aS,8aR)-3-cyclohexyl-2-hydroxypropylcarbamate]
LD50 (mg/kg i.p) [5]: >20 mg/kg i.p and <30 mg/kg i.p

CC(C)C[C@H](NC(=O)Oc1ccc2c(c1)[C@]1(C)CCN(C)[C@@H]1N2C)C(=O)O [MGS103, (3-aS-cis) 1,2,3,3a,8,8a-hexahydro 1,3a,8-trimethyl pyrrol [2,3-b]-indol-5-ol-L-2(4-methylvaleric acid) carbamate ester]
LD50 per os [6]: 412.6 ± 46.34 mg/kg
inhibitory cerebral and serumal acetylcholinesterase activity (in words) [7]: clear inhibitory dose-dependent and reversible
decrease of the spontaneous motility (on average) [8]: ~-30%

CC(C)[C@H](NC(=O)Oc1ccc2c(c1)[C@]1(C)CCN(C)[C@@H]1N2C)C(=O)O [MGS104, (3-as-cis) 1,2,3,3a,8,8a-hexahydro 1,3a,8-trimethyl pyrrol [2,3-b]-indol-5-ol-L-(3-methylbutyric acid) carbamate ester]
LD50 per os [6]: 423.0 ± 35.21 mg/kg
inhibitory cerebral and serumal acetylcholinesterase activity (in words) [7]: clear inhibitory dose-dependent and reversible
decrease of the spontaneous motility (on average) [8]: ~-30%

CN1CC[C@@]2(C)c3cc(OC(=O)NCC(=O)O)ccc3N(C)[C@@H]12 [MGS105, (3-as-cis) 1,2,3,3a,8,8a-hexahydro 1,3a,8-trimethyl pyrrol [2,3-b]-indol-5-ol (acetic acid) carbamate ester]
LD50 per os [6]: 345.6 ± 24.86 mg/kg
inhibitory cerebral and serumal acetylcholinesterase activity (in words) [7]: clear inhibitory dose-dependent and reversible
decrease of the spontaneous motility (on average) [8]: ~-30%

CN1CC[C@@]2(C)c3cc(OC(=O)NCCCCCCCCNC(=O)Oc4ccc5c(c4)[C@]4(C)CCN(C)[C@@H]4N5C)ccc3N(C)[C@@H]12 [MS002, Salicylate of (3a S-cis) - 1,2,3a,8,8a hexahydro - 1,3a,- trimethyl pyrrol [2,3-b]-indol-5-ol-1,8-octandicarbamate ester]
LD50 per os [9]: 48.98 ± 6.31 mg/kg
oral dose causing a significant decrease of the spontaneous motility [10]: 0.25 mg/kg
decrease of the spontaneous motility (on average) [10]: ~-25%

CN1CC[C@@]2(C)c3cc(OC(=O)NCCCCCNC(=O)Oc4ccc5c(c4)[C@]4(C)CCN(C)[C@@H]4N5C)ccc3N(C)[C@@H]12 [MS007, (3a S-cis) - 1,2,3,3a,8,8a hexahydro - 1,3a,8 - trimethyl pyrrol [2,3-b]-indol-5-ol-1,5-pentandicarbamate ester]
LD50 per os [9]: 64.26 ± 10.29 mg/kg
oral dose causing a significant decrease of the spontaneous motility [10]: 0.25 mg/kg
decrease of the spontaneous motility (on average) [10]: ~-25%

CN1CC[C@@]2(C)c3cc(OC(=O)NCCCCCCNC(=O)Oc4ccc5c(c4)[C@]4(C)CCN(C)[C@@H]4N5C)ccc3N(C)[C@@H]12 [MS010, (3a S-cis) - 1,2,3,3a,8,8a hexahydro - 1,3a,8 - trimethyl pyrrol [2,3-b]-indol-5-ol-1,6-hexandicarbamate ester]
LD50 per os [9]: 50.65 ± 5.48 mg/kg
oral dose causing a significant decrease of the spontaneous motility [10]: 0.25 mg/kg
decrease of the spontaneous motility (on average) [10]: ~-25%

CN1CC[C@@]2(C)c3cc(OC(=O)NCCCCCCCNC(=O)Oc4ccc5c(c4)[C@]4(C)CCN(C)[C@@H]4N5C)ccc3N(C)[C@@H]12 [MS011, (3a S-cis) - 1,2,3,3a,8,8a hexahydro - 1,3a,8 - trimethyl pyrrol [2,3-b]-indol-5-ol-1,7-heptandicarbamate ester]
LD50 per os [9]: 63.31 ± 9.32 mg/kg
oral dose causing a significant decrease of the spontaneous motility [10]: 0.25 mg/kg
decrease of the spontaneous motility (on average) [10]: ~-25%
